How the values were obtained:
MDA-MB-231 = test: MTT cell growth inhibition, MDA-MB-231; type: cell-based; settings: Homo sapiens, MDA-MB-231, 96 h, read-out: IC50 MDA-MB-231
HCT15 = test: MTT cell growth inhibition, HCT15; type: cell-based, human; settings: Homo sapiens, HCT-15, 96 h, read-out: IC50 HCT15, MTT, treatment 96 h; means of at least three measurements
EZH2 = EZH2 (Homo sapiens, UniProt Q15910); test: AlphaLISA assay for EZH2; type: biochemical; settings: enzymatic assay; means of at least three measurements
Chain of EZH2 (Q15910 whole entry): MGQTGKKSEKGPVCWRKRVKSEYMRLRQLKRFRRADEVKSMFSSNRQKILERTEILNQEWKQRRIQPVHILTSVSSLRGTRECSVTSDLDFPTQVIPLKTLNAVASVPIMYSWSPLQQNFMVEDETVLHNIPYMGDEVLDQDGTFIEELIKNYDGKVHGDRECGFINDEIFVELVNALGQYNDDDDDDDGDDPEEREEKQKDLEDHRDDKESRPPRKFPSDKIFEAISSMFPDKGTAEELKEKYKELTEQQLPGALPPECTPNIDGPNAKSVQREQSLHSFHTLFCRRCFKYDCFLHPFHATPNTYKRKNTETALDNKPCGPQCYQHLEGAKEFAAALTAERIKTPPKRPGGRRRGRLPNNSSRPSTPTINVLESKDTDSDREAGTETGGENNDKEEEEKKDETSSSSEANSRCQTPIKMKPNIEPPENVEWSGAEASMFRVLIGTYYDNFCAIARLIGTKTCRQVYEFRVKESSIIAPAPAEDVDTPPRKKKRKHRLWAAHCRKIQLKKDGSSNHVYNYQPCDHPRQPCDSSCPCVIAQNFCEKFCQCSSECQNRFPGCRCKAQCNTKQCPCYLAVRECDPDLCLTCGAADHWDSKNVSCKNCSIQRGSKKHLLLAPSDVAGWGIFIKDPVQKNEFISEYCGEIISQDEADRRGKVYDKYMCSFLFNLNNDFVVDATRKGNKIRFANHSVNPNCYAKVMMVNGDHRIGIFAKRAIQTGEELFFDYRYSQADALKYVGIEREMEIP
Chain of EZH2 (O75530 whole entry partner): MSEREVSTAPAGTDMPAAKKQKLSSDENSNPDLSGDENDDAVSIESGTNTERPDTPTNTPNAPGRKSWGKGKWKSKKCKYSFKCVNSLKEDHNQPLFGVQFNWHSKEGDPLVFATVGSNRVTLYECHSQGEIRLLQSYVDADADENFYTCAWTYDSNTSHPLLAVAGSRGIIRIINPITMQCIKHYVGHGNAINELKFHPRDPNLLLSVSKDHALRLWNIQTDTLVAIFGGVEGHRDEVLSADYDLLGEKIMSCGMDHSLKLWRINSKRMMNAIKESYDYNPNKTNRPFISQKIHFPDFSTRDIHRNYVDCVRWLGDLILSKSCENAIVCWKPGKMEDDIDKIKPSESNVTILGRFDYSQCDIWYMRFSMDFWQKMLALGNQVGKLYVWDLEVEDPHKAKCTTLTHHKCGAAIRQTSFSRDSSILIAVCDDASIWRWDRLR
Chain of EZH2 (Q15022 whole entry partner): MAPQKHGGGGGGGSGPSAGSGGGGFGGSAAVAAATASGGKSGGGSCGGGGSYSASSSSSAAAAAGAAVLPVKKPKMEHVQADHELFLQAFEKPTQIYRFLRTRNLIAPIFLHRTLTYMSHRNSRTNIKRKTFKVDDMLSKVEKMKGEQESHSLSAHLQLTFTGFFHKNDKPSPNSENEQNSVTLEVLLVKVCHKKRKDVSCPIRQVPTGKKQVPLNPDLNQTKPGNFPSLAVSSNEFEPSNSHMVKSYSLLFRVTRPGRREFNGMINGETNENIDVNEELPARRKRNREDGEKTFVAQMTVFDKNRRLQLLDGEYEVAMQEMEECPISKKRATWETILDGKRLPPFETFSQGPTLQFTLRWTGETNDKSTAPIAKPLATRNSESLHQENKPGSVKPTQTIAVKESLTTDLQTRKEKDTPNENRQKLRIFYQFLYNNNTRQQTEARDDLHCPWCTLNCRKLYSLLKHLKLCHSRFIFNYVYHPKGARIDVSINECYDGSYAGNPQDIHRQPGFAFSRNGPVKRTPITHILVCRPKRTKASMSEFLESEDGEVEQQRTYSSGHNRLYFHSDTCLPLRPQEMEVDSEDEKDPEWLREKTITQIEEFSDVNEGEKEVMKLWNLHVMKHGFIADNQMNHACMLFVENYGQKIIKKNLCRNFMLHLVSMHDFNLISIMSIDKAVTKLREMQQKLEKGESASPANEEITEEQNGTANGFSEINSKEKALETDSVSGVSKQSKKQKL

Row | Compound | IC50 (MDA-MB-231) [µM] | IC50 (HCT15) [µM] | IC50 (EZH2) [µM]
1 | COc1cccc2nc(Cl)cc(NC3CCN(Cc4ccccc4)CC3)c12 [Compound 1, N-(1-benzylpiperidin-4-yl)-2-chloro-5-methoxyquinolin-4-amine] | > 20 | – | –
2 | COc1cccc2nc(N3CCN(C)CC3)cc(NC3CCN(Cc4ccccc4)CC3)c12 [Compound 5a, N-(1-Benzylpiperidin-4-yl)-5-methoxy-2-(4-methylpiperazin-1-yl)quinolin-4-amine] | 11.9 ± 1.83 | 12.3 ± 0.95 | 16.4 ± 1.24
3 | COc1cccc2nc(N3CCOCC3)cc(NC3CCN(Cc4ccccc4)CC3)c12 [Compound 5b, N-(1-Benzylpiperidin-4-yl)-5-methoxy-2-morpholinoquinolin-4-amine] | 14.2 ± 1.97 | 15.6 ± 1.27 | 23 ± 2.06
4 | COc1cccc2nc(N3CCCCC3)cc(NC3CCN(Cc4ccccc4)CC3)c12 [Compound 5c, N-(1-Benzylpiperidin-4-yl)-5-methoxy-2-(piperidin-1-yl)quinolin-4-amine] | 5.6 ± 0.14 | 7.8 ± 0.46 | 32 ± 2.78
5 | COc1cccc2nc(Nc3ncccn3)cc(NC3CCN(Cc4ccccc4)CC3)c12 [Compound 5d, N4-(1-Benzylpiperidin-4-yl)-5-methoxy-N2-(pyrimidin-2-yl)quinoline-2,4-diamine] | > 20 | > 20 | 17.5 ± 0.96
6 | COc1cccc2nc(Nc3ccc([N+](=O)[O-])cc3)cc(NC3CCN(Cc4ccccc4)CC3)c12 [Compound 5e, N4-(1-Benzylpiperidin-4-yl)-5-methoxy-N2-(4-nitrophenyl)quinoline-2,4-diamine] | 14.9 ± 2.2 | 17.8 ± 1.27 | 29.4 ± 1.01
7 | COc1cccc2nc(Nc3cc(C(F)(F)F)cc(C(F)(F)F)c3)cc(NC3CCN(Cc4ccccc4)CC3)c12 [Compound 5f, N4-(1-Benzylpiperidin-4-yl)-N2-(3,5-bis(trifluoromethyl)phenyl)-5-methoxyquinoline-2,4-diamine] | > 20 | 10.2 ± 1.24 | 21.6 ± 2.35
8 | COc1cccc2nc(N3CCCN(C)CC3)cc(NC3CCN(Cc4ccccc4)CC3)c12 [Compound 5g, N-(1-Benzylpiperidin-4-yl)-5-methoxy-2-(4-methyl-1,4-diazepan-1-yl)quinolin-4-amine] | 4.56 ± 0.24 | 3.78 ± 0.07 | 6.6 ± 0.49
9 | COc1cccc2nc(N3CCCN(C)CC3)cc(NCCC(C)C)c12 [Compound 5h, N-Isopentyl-5-methoxy-2-(4-methyl-1,4-diazepan-1-yl)quinolin-4-amine] | 4.31 ± 0.57 | 5.46 ± 0.85 | 11.5 ± 1.21
10 | COc1cccc2nc(N3CCCN(C)CC3)cc(NC3CCN(C(C)C)CC3)c12 [Compound 5i, N-(1-Isopropylpiperidin-4-yl)-5-methoxy-2-(4-methyl-1,4-diazepan-1-yl)quinolin-4-amine] | 15.7 ± 1.27 | > 20 | 17.4 ± 1.07
11 | COc1cccc2nc(N3CCCN(C)CC3)cc(NCCN3CCN(C)CC3)c12 [Compound 5j, 5-Methoxy-2-(4-methyl-1,4-diazepan-1-yl)-N-(2-(4-methylpiperazin-1-yl)ethyl)quinolin-4-amine] | 12.4 ± 0.95 | 18.6 ± 2.2 | 4.2 ± 0.2
12 | COc1cccc2nc(N3CCCN(C)CC3)cc(NC3CCOCC3)c12 [Compound 5l, 5-Methoxy-2-(4-methyl-1,4-diazepan-1-yl)-N-(tetrahydro-2H-pyran-4-yl)quinolin-4-amine] | 2.4 ± 0.49 | 15.5 ± 0.2 | 2.8 ± 0.21
13 | COc1ccc(Nc2cc(N3CCCN(C)CC3)nc3cccc(OC)c23)cc1 [Compound 5m, 5-Methoxy-N-(4-methoxyphenyl)-2-(4-methyl-1,4-diazepan-1-yl)quinolin-4-amine] | > 20 | 18.9 ± 1.97 | 19.7 ± 2.56
14 | COc1cccc2nc(N3CCCN(C)CC3)cc(Nc3ccc(C(C)C)cc3)c12 [Compound 5n, N-(4-Isopropylphenyl)-5-methoxy-2-(4-methyl-1,4-diazepan-1-yl)quinolin-4-amine] | 13.2 ± 2.53 | 14.6 ± 1.27 | 26.4 ± 2.04
15 | COc1ccccc1Nc1cc(N2CCCN(C)CC2)nc2cccc(OC)c12 [Compound 5o, 5-Methoxy-N-(2-methoxyphenyl)-2-(4-methyl-1,4-diazepan-1-yl)quinolin-4-amine] | > 20 | > 20 | 17.5 ± 1.13
16 | COc1cccc2nc(N3CCCN(C)CC3)cc(Nc3ccc(N(C)C)cc3)c12 [Compound 5p, N1-(5-Methoxy-2-(4-methyl-1,4-diazepan-1-yl)quinolin-4-yl)-N4,N4-dimethylbenzene-1,4-diamine] | 16.2 ± 1.67 | 17.4 ± 1.54 | 27.6 ± 0.97
17 | COc1ccc(Nc2cc(N3CCCN(C)CC3)nc3cccc(OC)c23)c(C)c1 [Compound 5q, 5-Methoxy-N-(4-methoxy-2-methylphenyl)-2-(4-methyl-1,4-diazepan-1-yl)quinolin-4-amine] | 14.5 ± 1.23 | 16.9 ± 0.36 | 34.8 ± 1.54
18 | COc1cccc2nc(N3CCCN(C)CC3)cc(Nc3ccc(C)cc3)c12 [Compound 5r, 5-Methoxy-2-(4-methyl-1,4-diazepan-1-yl)-N-(p-tolyl)quinolin-4-amine] | > 20 | 12.9 ± 0.89 | 39.7 ± 1.26
19 | COc1cccc(Nc2cc(N3CCCN(C)CC3)nc3cccc(OC)c23)c1 [Compound 5s, 5-Methoxy-N-(3-methoxyphenyl)-2-(4-methyl-1,4-diazepan-1-yl)quinolin-4-amine] | 16.9 ± 1.06 | 19.6 ± 0.56 | 16.8 ± 0.94
20 | COc1cccc2nc(N3CCCN(C)CC3)cc(Nc3cncnc3)c12 [Compound 5t, 5-Methoxy-2-(4-methyl-1,4-diazepan-1-yl)-N-(pyrimidin-5-yl)quinolin-4-amine] | > 20 | > 20 | 35.3 ± 1.61
21 | COc1cccc2nc(N3CCCN(C)CC3)cc(Nc3ccc([N+](=O)[O-])cc3)c12 [Compound 5u, 5-Methoxy-2-(4-methyl-1,4-diazepan-1-yl)-N-(4-nitrophenyl)quinolin-4-amine] | 14.9 ± 2.2 | 17.8 ± 1.27 | 26.2 ± 2.54
22 | COc1cccc2nc(N3CCCN(C)CC3)cc(Nc3cc(C(F)(F)F)cc(C(F)(F)F)c3)c12 [Compound 5v, N-(3,5-Bis(trifluoromethyl)phenyl)-5-methoxy-2-(4-methyl-1,4-diazepan-1-yl)quinolin-4-amine] | > 20 | 10.2 ± 1.24 | 34.1 ± 2.22
23 | COc1ccc2nc(N3CCCN(C)CC3)cc(NC3CCN(C)CC3)c2c1OC [Compound 9d, 5,6-Dimethoxy-2-(4-methyl-1,4-diazepan-1-yl)-N-(1-methylpiperidin-4-yl)quinolin-4-amine] | 12.4 ± 0.95 | 8.6 ± 2.2 | 5.6 ± 0.45
24 | COc1cc(OC)c2c(NC3CCN(C)CC3)cc(N3CCCN(C)CC3)nc2c1 [Compound 9e, 5,7-Dimethoxy-2-(4-methyl-1,4-diazepan-1-yl)-N-(1-methylpiperidin-4-yl)quinolin-4-amine] | 12.5 ± 0.62 | 10.6 ± 0.83 | 6.7 ± 0.36
25 | COc1ccc(OC)c2c(NC3CCN(C)CC3)cc(N3CCCN(C)CC3)nc12 [Compound 9f, 5,8-Dimethoxy-2-(4-methyl-1,4-diazepan-1-yl)-N-(1-methylpiperidin-4-yl)quinolin-4-amine] | 12.4 ± 0.49 | 15.5 ± 0.53 | 9.2 ± 0.51
26 | COc1cc2nc(N3CCCN(C)CC3)cc(NC3CCN(C)CC3)c2cc1OC [Compound 9g, 6,7-Dimethoxy-2-(4-methyl-1,4-diazepan-1-yl)-N-(1-methylpiperidin-4-yl)quinolin-4-amine] | > 20 | 15.9 ± 1.85 | 17.8 ± 2.07
27 | COc1cc(OC)c2nc(N3CCCN(C)CC3)cc(NC3CCN(C)CC3)c2c1 [Compound 9h, 6,8-Dimethoxy-2-(4-methyl-1,4-diazepan-1-yl)-N-(1-methylpiperidin-4-yl)quinolin-4-amine] | 13.2 ± 1.64 | 19.8 ± 1.27 | 14.9 ± 1.71
28 | COc1ccc2c(NC3CCN(C)CC3)cc(N3CCCN(C)CC3)nc2c1OC [Compound 9i, 7,8-Dimethoxy-2-(4-methyl-1,4-diazepan-1-yl)-N-(1-methylpiperidin-4-yl)quinolin-4-amine] | > 20 | > 20 | 13.7 ± 1.32

Reference: article PMC6272711, “5-Methoxyquinoline Derivatives as a New Class of EZH2 Inhibitors” (Molecules, 2015)
